This note sets out measurements from patent US9725436B2, “Cytochrome P450 inhibitors and their method of use” (CORTENDO AB (PUBL), priority 2013, dated 2017).

The target of one data set is recombinant CYP-17 (Homo sapiens (Human), UniProt P05093). Description: Cyp17 assay protocol (3H-acetic acid release from [21-3H] 17α-hydroxyl-Pregnenolone). Format: cell-based. As to conditions: AD293 cells over-expressing recombinant CYP-17. The method, then: Cyp17 assay protocol: AD293 cells that stably over-express recombinant CYP-17 were seeded in 96 well plates coated with poly D-lysine (15,000 cell per well) and incubated at 37° C. for 24 hours in Dulbecco's Modified Eagle Medium (DMEM) with Fetal Bovine Serum (FBS) that is stripped of hormones by charcoal treatment. The media is then removed, the cells are washed once with Phosphate buffer saline solution, and 50 μL Dulbecco's Modified Eagle Medium (DMEM) with Fetal Bovine Serum (FBS) that is stripped of hormones by charcoal treatment is added. Compounds of the disclosure are then added to the wells in eight concentration spanning 10 μM to 4.5 nM, and the plates are incubated for an additional 60 minutes at 37° C. [21-^3H] 17α-hydroxyl-Pregnenolone is then added (50 nCi per well, 31.25 nM) and the plates are incubated for an additional 4 hours at 37° C. The media is then collected, 200 μL of chloroform is added, and the mixture is shaken for 1 hour. The aqueous layer is then separated and analyzed for the presence of ^3H-acetic acid using a Perkin Elmer Topcount NXT to determine IC50s of the compounds of the disclosure.
Chain of recombinant CYP-17 (P05093 whole entry, species assumed): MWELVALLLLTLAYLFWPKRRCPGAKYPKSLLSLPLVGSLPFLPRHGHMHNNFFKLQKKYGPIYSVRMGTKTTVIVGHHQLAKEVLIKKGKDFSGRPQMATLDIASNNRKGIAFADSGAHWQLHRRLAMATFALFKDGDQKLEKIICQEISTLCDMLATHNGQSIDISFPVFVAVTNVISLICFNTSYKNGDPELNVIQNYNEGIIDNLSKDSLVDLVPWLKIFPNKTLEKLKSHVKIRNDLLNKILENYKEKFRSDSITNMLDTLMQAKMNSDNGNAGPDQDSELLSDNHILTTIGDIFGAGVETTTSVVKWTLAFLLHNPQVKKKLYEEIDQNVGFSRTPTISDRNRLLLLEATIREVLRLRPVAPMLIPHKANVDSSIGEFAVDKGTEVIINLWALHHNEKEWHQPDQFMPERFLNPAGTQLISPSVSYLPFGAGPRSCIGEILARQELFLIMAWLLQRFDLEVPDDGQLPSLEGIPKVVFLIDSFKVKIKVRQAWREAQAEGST

Another data set concerns the target recombinant CYP-21 (Homo sapiens (Human), UniProt P08686). Briefly: Cyp21 assay protocol (11-deoxycortisol formation from 17α-OH Progesterone, LC/MS). Format: cell-based. The following applies: AD293 cells over-expressing recombinant CYP-21. The method, then: (§1) Cyp21 assay protocol: AD293 cells that stably over-express recombinant CYP-21 were seeded in 96 well plates coated with poly D-lysine (10,000 cell per well) and incubated at 37° C. for 24 hours in Dulbecco's Modified Eagle Medium (DMEM) with Fetal Bovine Serum (FBS) that is stripped of hormones by charcoal treatment. The media is then removed, the cells are washed once with Phosphate buffer saline solution, and 50 μL Dulbecco's Modified Eagle Medium (DMEM) with Fetal Bovine Serum (FBS) that is stripped of hormones by charcoal treatment is added. Compounds of the disclosure are then added to the wells in eight concentration spanning 10 μM to 4.5 nM, and the plates are incubated for an additional 60 minutes at 37° C. 17α-OH Progesterone is then added (1.0 μM) and the plates are incubated for an additional 45 minutes at 37° C. After incubation, 50 uL of the supernatant (medium) is transferred into a fresh plate and 150 uL of an acetonitrile solution containing 200 ng/ml of Telmisartan is added.

The target of the next data set is recombinant CYP-11 (Homo sapiens (Human), UniProt P15538). Description: Cyp11 assay protocol (cortisol formation from 11-deoxycortisol, LC/MS). Format: cell-based. The following applies: AD293 cells over-expressing recombinant CYP-11. On the procedure: as §1, with “Cyp11” for “Cyp21”, “CYP-11” for “CYP-21”, “(15,000” for “(10,000”, “11-deoxycortisol” for “17α-OH Progesterone”, “(2.0” for “(1.0”, “12 hours” for “45 minutes”
Chain of recombinant CYP-11 (P15538 25-503): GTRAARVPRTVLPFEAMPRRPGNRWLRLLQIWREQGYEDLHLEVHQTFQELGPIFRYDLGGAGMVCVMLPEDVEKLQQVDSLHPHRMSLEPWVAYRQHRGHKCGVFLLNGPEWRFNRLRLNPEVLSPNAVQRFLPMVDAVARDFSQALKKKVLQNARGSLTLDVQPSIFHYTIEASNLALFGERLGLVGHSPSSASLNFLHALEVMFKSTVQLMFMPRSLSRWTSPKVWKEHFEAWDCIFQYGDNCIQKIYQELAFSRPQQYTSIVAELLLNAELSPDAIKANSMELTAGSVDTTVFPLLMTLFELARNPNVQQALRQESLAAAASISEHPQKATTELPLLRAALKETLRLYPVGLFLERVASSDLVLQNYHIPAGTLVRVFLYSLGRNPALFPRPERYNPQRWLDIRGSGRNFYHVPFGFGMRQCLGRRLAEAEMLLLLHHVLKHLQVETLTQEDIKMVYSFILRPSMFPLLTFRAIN

Data set [1] can be described thus: Pharmacokinetic study in the guinea pig, 10 mg/kg oral dosing. Format: in vivo. As to conditions: for DNAUC(0-inf): dose-normalised AUC; for Cmax / AUC / MRT / AUC(0-inf) / half-life: in vivo; for AUC: read-out: AUC0_last; for MRT: read-out: MRT0_last. The arrangement: DNAUC(0-inf): unit not given beside the values. On the procedure:
Pharmacokinetic studies in the guinea pig were run using 1 mg/kg IV dosing (20% DMA, 40% TEG, 40% water) and 10 mg/kg oral dosing (2% Tween-80, 98% HPMC (1% water)).

Chain of recombinant CYP-21 (P08686 whole entry, species assumed): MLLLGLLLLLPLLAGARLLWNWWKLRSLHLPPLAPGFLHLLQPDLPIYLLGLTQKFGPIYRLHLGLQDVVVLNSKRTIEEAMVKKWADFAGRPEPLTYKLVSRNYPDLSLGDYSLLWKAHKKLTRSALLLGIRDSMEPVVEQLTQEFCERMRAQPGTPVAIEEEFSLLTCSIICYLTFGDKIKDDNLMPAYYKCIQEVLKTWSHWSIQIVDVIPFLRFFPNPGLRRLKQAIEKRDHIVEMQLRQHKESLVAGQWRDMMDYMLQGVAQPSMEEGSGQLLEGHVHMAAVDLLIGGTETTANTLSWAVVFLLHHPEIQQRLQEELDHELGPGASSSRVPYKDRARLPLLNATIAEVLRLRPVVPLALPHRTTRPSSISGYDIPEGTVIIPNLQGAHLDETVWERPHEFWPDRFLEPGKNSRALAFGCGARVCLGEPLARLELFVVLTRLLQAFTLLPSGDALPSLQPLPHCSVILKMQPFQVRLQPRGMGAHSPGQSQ

On to `Fc1cc(/C=C/c2ccc(N3CCN(CC4CC4)CC3)cc2)cc(-c2ccncc2)c1` [Example 38], for which the IC50 (usually the concentration that inhibits the measured activity by half) at recombinant CYP-17 is 5 nM; at recombinant CYP-21, 770 nM; at recombinant CYP-11, 54 nM.

Take `Fc1cc(CCc2ccc(-c3ccncc3)cc2)cc(-c2ccncc2)c1` [Example 37]: the IC50 on recombinant CYP-17 is 190 nM; on recombinant CYP-21, 490 nM.

Regarding `O=S(=O)(N1CCN(c2ccc(/C=C/c3cc(F)cc(-c4ccncc4)c3)cc2)CC1)C(F)(F)F` [Example 39], the IC50 was determined as 5 nM on recombinant CYP-17, 316 nM on recombinant CYP-21 and 1500 nM on recombinant CYP-11.

Take `CC(C)=C(c1cccnc1)c1cc(Cl)cc(/C=C/c2ccc(-c3ccncc3)cc2)c1` [Example 46]: at recombinant CYP-17, the half-maximal inhibitory concentration (IC50) came out at 300 nM.

As to `CC(=O)N1CCN(c2ccc(/C=C/c3cc(Cl)cc(COc4cccnc4)c3)cc2)CC1` [Example 26], the IC50 was found to be 135 nM at recombinant CYP-17 and 140 nM on recombinant CYP-11.

Regarding `O=S(=O)(c1cccnc1)N1CCN(c2ccc(/C=C/c3cc(Cl)cc(Cn4ccnc4)c3)cc2)CC1` [Example 21], the figures for the IC50 at recombinant CYP-17, on recombinant CYP-21 and at recombinant CYP-11 were 17 nM, 1380 nM and 4 nM, respectively.

For the molecule `CCOC(=O)CNC(=O)N1CCN(c2ccc(/C=C/c3cc(F)cc(-c4ccncc4)c3)cc2)CC1` [Example 34], the IC50 at recombinant CYP-17 came to 8 nM; on recombinant CYP-21, 1010 nM; at recombinant CYP-11 it was 1300 nM.

With `CCOC(=O)CNC(=O)N1CCN(c2ccc(CCc3cc(F)cc(-c4ccncc4)c3)cc2)CC1` [Example 43], the IC50 amounted to 7 nM on recombinant CYP-17 and 160 nM on recombinant CYP-11.

As for `O=S(=O)(C1CC1)N1CCN(c2ccc(CCc3cc(F)cc(-c4ccncc4)c3)cc2)CC1` [Example 41], the IC50 at recombinant CYP-17 worked out at 3 nM; on recombinant CYP-21 it was 1200 nM.

Regarding `CCOC(=O)CNC(=O)N1CCN(c2ccc(/C=C/c3cc(Cl)cc(Cn4ccnc4)c3)cc2)CC1` [Example 20], the IC50 at recombinant CYP-17 worked out at 41 nM; at recombinant CYP-21, 360 nM; on recombinant CYP-11, 27 nM.

`N#Cc1cccc(C(=O)N2CCN(c3ccc(/C=C/c4cc(Cl)cc(Cn5ccnc5)c4)cc3)CC2)c1` [Example 18]: the IC50 at recombinant CYP-17 turned out to be 22 nM; on recombinant CYP-11 it was 4 nM.

As to `Clc1cc(/C=C/c2ccc(N3CCN(CC4CC4)CC3)cc2)cc(Cn2ccnc2)c1` [Example 19], the values for the IC50 at recombinant CYP-17, on recombinant CYP-21 and on recombinant CYP-11 were 17 nM, 585 nM and 11 nM, respectively.

For `O=C(C1CC1)N1CCN(c2ccc(/C=C/c3cc(Cl)cc(Cn4ccnc4)c3)cc2)CC1` [Example 22], the IC50 turned out to be 48 nM on recombinant CYP-17, 1400 nM on recombinant CYP-21 and 19 nM on recombinant CYP-11.

`O=S(=O)(C1CC1)N1CCN(c2ccc(/C=C/c3cc(F)cc(-c4ccncc4)c3)cc2)CC1` [drawing 724]: in data set [1], the “DNAUC(0-inf)” value is recorded as 160, the peak level (Cmax) was 172 ng/mL, the AUC is 1600 ng·h/mL and the MRT is 7 h.

For `Fc1cc(/C=C/c2ccc(Br)cc2)cc(-c2ccncc2)c1` [Example 24], the concentration for half-maximal inhibition (IC50) on recombinant CYP-17 amounted to 42 nM; on recombinant CYP-21 it was 2600 nM.

Take `CC(=O)N1CCN(c2ccc(/C=C/c3cc(Cl)cc(-c4cccnc4)c3)cc2)CC1` [Example 32]: at recombinant CYP-17, the IC50 stood at 620 nM.

In the case of `O=S(=O)(N1CCN(c2ccc(CCc3cc(F)cc(-c4ccncc4)c3)cc2)CC1)C(F)(F)F` [Example 45], the results for the IC50 on recombinant CYP-17, on recombinant CYP-21 and on recombinant CYP-11 were 16.5 nM, 2800 nM and 183 nM, respectively.

Regarding `CCS(=O)(=O)N1CCN(c2ccc(CCc3cc(F)cc(-c4ccncc4)c3)cc2)CC1` [Example 44], the IC50 is 2 nM at recombinant CYP-17, 1600 nM at recombinant CYP-21 and 330 nM on recombinant CYP-11.

On to `CCS(=O)(=O)N1CCN(c2ccc(/C=C/c3cc(F)cc(-c4ccncc4)c3)cc2)CC1` [Example 36], for which the half-maximal inhibitory concentration (IC50) was found to be 5 nM at recombinant CYP-17, 520 nM at recombinant CYP-21 and 200 nM on recombinant CYP-11.

With `CC(C)S(=O)(=O)N1CCN(c2ccc(/C=C/c3cc(F)cc(-c4ccncc4)c3)cc2)CC1` [Example 40], the IC50 on recombinant CYP-17 was determined as 1 nM; on recombinant CYP-21 it was 190 nM.

Consider `Fc1cc(/C=C/c2ccc(-c3ccncc3)cc2)cc(-c2ccncc2)c1` [Example 25], for which the IC50 on recombinant CYP-17 turned out to be 11 nM; at recombinant CYP-21 it was 850 nM; on recombinant CYP-11, 3700 nM.

Turning to `CCS(=O)(=O)N1CCN(c2ccc(/C=C/c3cc(F)cc(-c4ccncc4)c3)cc2)CC1` [drawing 725], in data set [1], the AUCExtra was found to be 18.25%; the “DNAUC(0-inf)” value is 330.1; the AUC(0-inf) (commonly the area under the concentration-time curve extrapolated to infinity) stood at 4190 ng·h/mL; the Cmax (in general, the peak of the concentration-time curve) was 540 ng/mL. In addition, in data set [1], the half-life – broadly, the time needed for the level to fall by half in the phase considered – is 4.8 h; the AUC stood at 3300 ng·h/mL; the MRT is 5.54 h.

`CC(C)S(=O)(=O)N1CCN(c2ccc(CCc3cc(F)cc(-c4ccncc4)c3)cc2)CC1` [Example 42]: the values for the IC50 at recombinant CYP-17 and on recombinant CYP-21 were 4 nM and 1000 nM, respectively.

Consider `O=S(=O)(N1CCN(c2ccc(/C=C/c3cc(F)cc(-c4ccncc4)c3)cc2)CC1)C(F)(F)F` [drawing 726], for which, in data set [1], the AUCExtra is given as 25.87%, the “DNAUC(0-inf)” value came out at 164.6, the area under the curve AUC(0-inf) was determined as 2450 ng·h/mL and the Cmax came out at 271 ng/mL. In addition, in data set [1], the half-life was 5.3 h, the AUC came to 1650 ng·h/mL and the MRT was found to be 5.01 h.

For the molecule `CC(=O)N1CCN(c2ccc(/C=C/c3cc(Cl)cc(C(O)(c4cccnc4)C(C)C)c3)cc2)CC1` (stereo not drawn) [Example 29], the IC50 turned out to be 240 nM on recombinant CYP-17, 3300 nM at recombinant CYP-21 and 370 nM on recombinant CYP-11.

Regarding `O=S(=O)(C1CC1)N1CCN(c2ccc(/C=C/c3cc(F)cc(-c4ccncc4)c3)cc2)CC1` [Example 35], the IC50 on recombinant CYP-17 turned out to be 5 nM; at recombinant CYP-21, 393 nM; on recombinant CYP-11 it was 140 nM.

As to `CC(=O)N1CCN(c2ccc(/C=C/c3cc(Cl)cc(-c4ccncc4)c3)cc2)CC1` [Example 31], the IC50 at recombinant CYP-17 was found to be 5 nM; at recombinant CYP-21, 1100 nM.

Regarding `CC(=O)N1CCN(c2ccc(/C=C/c3cc(F)cc(-c4ccncc4)c3)cc2)CC1`, in data set [1], the AUCExtra was 43.93%, the “DNAUC(0-inf)” value is recorded as 823.1, the area under the curve AUC(0-inf) is 14900 ng·h/mL and the Cmax came to 1020 ng/mL. In addition, in data set [1], the half-life is 6 h, the AUC amounted to 8230 ng·h/mL and the MRT was determined as 5.56 h.

With `CC(=O)N1CCN(c2ccc(/C=C/c3cc(Cl)cc(Cc4cccnc4)c3)cc2)CC1` [Example 28], the IC50 at recombinant CYP-17 worked out at 35 nM; at recombinant CYP-11 it was 180 nM.

As for `CCOC(=O)CNC(=O)NC1CCN(c2ccc(/C=C/c3cc(Cl)cc(Cn4ccnc4)c3)cc2)CC1` [Example 47], the IC50 on recombinant CYP-17 worked out at 3.5 nM; at recombinant CYP-21 it was 73 nM; at recombinant CYP-11, 250 nM.

Consider `N#Cc1cccc(CN2CCN(c3ccc(/C=C/c4cc(Cl)cc(Cn5ccnc5)c4)cc3)CC2)c1` [Example 23], for which the IC50 stood at 25 nM at recombinant CYP-17, 285 nM on recombinant CYP-21 and 7 nM on recombinant CYP-11.

On to `O=S(=O)(c1cccnc1)N1CCN(c2ccc(/C=C/c3cc(F)cc(-c4ccncc4)c3)cc2)CC1` [Example 33], for which the IC50 on recombinant CYP-17 amounted to 7 nM; on recombinant CYP-21 it was 3300 nM; at recombinant CYP-11, 220 nM.

As to `CC(=O)N1CCN(c2ccc(/C=C/c3cc(Cl)cc(C(=C(C)C)c4cccnc4)c3)cc2)CC1` [Example 30], the IC50 at recombinant CYP-17 turned out to be 210 nM; at recombinant CYP-21, 2400 nM; at recombinant CYP-11, 1800 nM.

Regarding `CC(=O)N1CCN(c2ccc(/C=C/c3cc(F)cc(-c4cccnc4)c3)cc2)CC1` [Example 27], the IC50 at recombinant CYP-17 is 610 nM.
